# Counter-ions that a name gives are not always drawn. Marks after values point to notes of the source that are not given here.
# Legend:
# female rats = assay: 28-day repeated dose oral toxicity study (OECD 407) with GC-MS/LC-MS plasma metabolite profiling, female rats
# Procedure: A group of each 5 male and female rats was dosed once daily with the indicated compounds (see Table 5, below for compounds, applied doses and administeration details) over 28 days.
# Each dose group in the studies consisted of five rats per sex. Additional groups of each 5 male and female animals served as controls. Before starting the treatment period, animals, which were 62-64 days old when supplied, were acclimatized to the housing and environmental conditions for 7 days. All animals of the animal population were kept under the same constant temperature (20-24±3° C.) and the same constant humidity (30-70%). The animals of the animal population were fed ad libitum. The food to be used was essentially free of chemical or microbial contaminants. Drinking water was also offered ad libitum. Accordingly, the water was free of chemical and microbial contaminants as laid down in the European Drinking Water Directive 98/83/EG. The illumination period was 12 hours light followed by 12 hours darkness (12 hours light, from 6:00 to 18:00, and 12 hours darkness, from 18:00 to 6:00).
# In the morning of day 7, 14, and 28, blood was taken from the retroorbital venous plexus from fasted anaesthetized animals. From each animal, 1 ml of blood was collected with EDTA as anticoagulant. The samples were centrifuged for generation of plasma. All plasma samples were covered with a N2 atmosphere and then stored at −80° C. until analysis.
# For mass spectrometry-based metabolite profiling analyses plasma samples were extracted and a polar and a non-polar (lipid) fraction was obtained. For GC-MS analysis, the non-polar fraction was treated with methanol under acidic conditions to yield the fatty acid methyl esters. Both fractions were further derivatised with O-methyl-hydroxyamine hydrochloride and pyridine to convert Oxogroups to O-methyloximes and subsequently with a silylating agent before analysis. In LC-MS analysis, both fractions were reconstituted in appropriate solvent mixtures. HPLC was performed by gradient elution on reversed phase separation columns.
# Following comprehensive analytical validation steps, the data for each analyte were normalized against data from pool samples. These samples were run in parallel through the whole process to account for process variability. The significance of treatment group values specific for sex, treatment duration and metabolite was determined by comparing means of the treated groups to the means of the respective untreated control groups using WELCH-test and quantified with treatment ratios versus control and p-values.
# male rats = assay: 28-day repeated dose oral toxicity study (OECD 407) with GC-MS/LC-MS plasma metabolite profiling, male rats; format: in vivo, rat; conditions: plasma
# Excerpt: Drinking water was also offered ad libitum.
# The samples were centrifuged for generation of plasma.
compound,measurement,setting,value
CN1CCCC1=O [1-Methyl-2-pyrrolidon],"3-O-Methylsphingosine (d18:1), ratio versus control",female rats; day 7,2.14*
same,"5-O-Methylsphingosine (d18:1), ratio versus control",female rats; day 7,2.42*
same,"14-Methylhexadecanoic acid, ratio versus control",female rats; day 7,1.15
same,"Behenic acid (C22:0), ratio versus control",female rats; day 7,1.9*
same,"Cholesterol, ratio versus control",female rats; day 7,1.73*
same,"Coenzyme Q9, ratio versus control",female rats; day 7,2.46*
same,"DAG (C18:1,C18:2), ratio versus control",female rats; day 7,2.43*
same,"Eicosanoic acid (C20:0), ratio versus control",female rats; day 7,1.77*
same,"Glucose, ratio versus control",female rats; day 7,1.05*
same,"Glycerol phosphate, lipid fraction, ratio versus control",female rats; day 7,1.86*
same,"Glycerol, lipid fraction, ratio versus control",female rats; day 7,2.24*
same,"Glycerol-3-phosphate, polar fraction, ratio versus control",female rats; day 7,1.9*
same,"Heptadecanoic acid (C17:0), ratio versus control",female rats; day 7,1.46*
same,"Linoleic acid (C18:cis[9,12]2), ratio versus control",female rats; day 7,2.52*
same,"Nervonic acid (C24:cis[15]1), ratio versus control",female rats; day 7,1.75*
same,"Palmitic acid (C16:0), ratio versus control",female rats; day 7,1.91*
same,"Phosphatidylcholine (C16:0,C20:5), ratio versus control",female rats; day 7,1.32*
same,"TAG (C16:0,C18:1,C18:3), ratio versus control",female rats; day 7,3.94*
same,"TAG (C16:0,C18:2), ratio versus control",female rats; day 7,2.46*
same,"TAG (C18:1,C18:2), ratio versus control",female rats; day 7,3.73*
same,"TAG (C18:2,C18:2), ratio versus control",female rats; day 7,3.44*
same,"TAG (C18:2,C18:3), ratio versus control",female rats; day 7,4.16*
same,"TAG No 01, ratio versus control",female rats; day 7,3.21*
same,"TAG No 05, ratio versus control",female rats; day 7,3.11*
same,"TAG No 07, ratio versus control",female rats; day 7,3.69*
same,"dihomo-gamma-Linolenic acid (C20:cis[8,11,14]3), ratio versus control",female rats; day 7,2.37*
same,"erythro-Sphingosine, ratio versus control",female rats; day 7,2.19*
same,"3-O-Methylsphingosine (d18:1), ratio versus control",female rats; day 14,2.3*
same,"5-O-Methylsphingosine (d18:1), ratio versus control",female rats; day 14,2.31*
same,"14-Methylhexadecanoic acid, ratio versus control",female rats; day 14,0.93
same,"Behenic acid (C22:0), ratio versus control",female rats; day 14,2.04*
same,"Cholesterol, ratio versus control",female rats; day 14,2.16*
same,"Coenzyme Q9, ratio versus control",female rats; day 14,2.57*
same,"DAG (C18:1,C18:2), ratio versus control",female rats; day 14,2.31*
same,"Eicosanoic acid (C20:0), ratio versus control",female rats; day 14,1.8*
same,"Glucose, ratio versus control",female rats; day 14,0.99
same,"Glycerol phosphate, lipid fraction, ratio versus control",female rats; day 14,1.72*
same,"Glycerol, lipid fraction, ratio versus control",female rats; day 14,2.33*
same,"Glycerol-3-phosphate, polar fraction, ratio versus control",female rats; day 14,1.11*
same,"Heptadecanoic acid (C17:0), ratio versus control",female rats; day 14,1.39*
same,"Linoleic acid (C18:cis[9,12]2), ratio versus control",female rats; day 14,2.4*
same,"Nervonic acid (C24:cis[15]1), ratio versus control",female rats; day 14,1.64*
same,"Palmitic acid (C16:0), ratio versus control",female rats; day 14,1.95*
same,"Phosphatidylcholine (C16:0,C20:5), ratio versus control",female rats; day 14,1.45*
same,"TAG (C16:0,C18:1,C18:3), ratio versus control",female rats; day 14,4.14*
same,"TAG (C16:0,C18:2), ratio versus control",female rats; day 14,3.6*
same,"TAG (C18:1,C18:2), ratio versus control",female rats; day 14,3.82*
same,"TAG (C18:2,C18:2), ratio versus control",female rats; day 14,3.56*
same,"TAG (C18:2,C18:3), ratio versus control",female rats; day 14,3.61*
same,"TAG No 01, ratio versus control",female rats; day 14,4.15*
same,"TAG No 05, ratio versus control",female rats; day 14,5.32*
same,"TAG No 07, ratio versus control",female rats; day 14,3.84*
same,"dihomo-gamma-Linolenic acid (C20:cis[8,11,14]3), ratio versus control",female rats; day 14,2.16*
same,"erythro-Sphingosine, ratio versus control",female rats; day 14,2.27*
same,"3-O-Methylsphingosine (d18:1), ratio versus control",female rats; day 28,1.83*
same,"5-O-Methylsphingosine (d18:1), ratio versus control",female rats; day 28,1.89*
same,"14-Methylhexadecanoic acid, ratio versus control",female rats; day 28,1.35*
same,"Behenic acid (C22:0), ratio versus control",female rats; day 28,2.06*
same,"Cholesterol, ratio versus control",female rats; day 28,2.38*
same,"Coenzyme Q9, ratio versus control",female rats; day 28,3.27*
same,"DAG (C18:1,C18:2), ratio versus control",female rats; day 28,6.81*
same,"Eicosanoic acid (C20:0), ratio versus control",female rats; day 28,2.79*
same,"Glucose, ratio versus control",female rats; day 28,0.76*
same,"Glycerol phosphate, lipid fraction, ratio versus control",female rats; day 28,2.59*
same,"Glycerol, lipid fraction, ratio versus control",female rats; day 28,5.75*
same,"Glycerol-3-phosphate, polar fraction, ratio versus control",female rats; day 28,1.29
same,"Heptadecanoic acid (C17:0), ratio versus control",female rats; day 28,2.17*
same,"Linoleic acid (C18:cis[9,12]2), ratio versus control",female rats; day 28,4.46*
same,"Nervonic acid (C24:cis[15]1), ratio versus control",female rats; day 28,1.75*
same,"Palmitic acid (C16:0), ratio versus control",female rats; day 28,3.53*
same,"Phosphatidylcholine (C16:0,C20:5), ratio versus control",female rats; day 28,1.35*
same,"TAG (C16:0,C18:1,C18:3), ratio versus control",female rats; day 28,11.37*
same,"TAG (C16:0,C18:2), ratio versus control",female rats; day 28,3.51*
same,"TAG (C18:1,C18:2), ratio versus control",female rats; day 28,7.38*
same,"TAG (C18:2,C18:2), ratio versus control",female rats; day 28,7.33*
same,"TAG (C18:2,C18:3), ratio versus control",female rats; day 28,11.21*
same,"TAG No 01, ratio versus control",female rats; day 28,11.51*
same,"TAG No 05, ratio versus control",female rats; day 28,10.76*
same,"TAG No 07, ratio versus control",female rats; day 28,14.21*
same,"dihomo-gamma-Linolenic acid (C20:cis[8,11,14]3), ratio versus control",female rats; day 28,3.96*
same,"erythro-Sphingosine, ratio versus control",female rats; day 28,1.9*
CN(CCOc1ccc(CC2SC(=O)NC2=O)cc1)c1ccccn1 (stereo not drawn) [Rosiglitazone maleate],"Alanine, ratio versus control",male rats; day 7,0.78*
same,"Citrulline, ratio versus control",male rats; day 7,0.88*
same,"Isoleucine, ratio versus control",male rats; day 7,0.7*
same,"Leucine, ratio versus control",male rats; day 7,0.74*
same,"Lysine, ratio versus control",male rats; day 7,0.78*
same,"Ornithine, ratio versus control",male rats; day 7,0.85*
same,"Phenylalanine, ratio versus control",male rats; day 7,0.85*
same,"Phosphate (inorganic and organic phosphates), ratio versus control",male rats; day 7,0.76*
same,"Phosphatidylcholine (C16:0,C16:0), ratio versus control",male rats; day 7,1.14*
same,"Proline, ratio versus control",male rats; day 7,0.89*
same,"Valine, ratio versus control",male rats; day 7,0.74*
same,"Phosphatidylcholine (C16:0,C20:5), ratio versus control",male rats; day 7 (Table 4a),1.07*
same,"Docosahexaenoic acid (C22:cis[4,7,10,13,16,19]6), ratio versus control",male rats; day 7 (Table 4b),0.57*
same,"Phosphatidylcholine (C18:0,C22:6), ratio versus control",male rats; day 7 (Table 4b),0.87*
same,"Threonine, ratio versus control",male rats; day 7 (Table 4b),0.74*
same,"Alanine, ratio versus control",male rats; day 14,0.83*
same,"Citrulline, ratio versus control",male rats; day 14,0.79
same,"Isoleucine, ratio versus control",male rats; day 14,0.72*
same,"Leucine, ratio versus control",male rats; day 14,0.66*
same,"Lysine, ratio versus control",male rats; day 14,0.77*
same,"Ornithine, ratio versus control",male rats; day 14,0.86*
same,"Phenylalanine, ratio versus control",male rats; day 14,0.84*
same,"Phosphate (inorganic and organic phosphates), ratio versus control",male rats; day 14,0.66*
same,"Phosphatidylcholine (C16:0,C16:0), ratio versus control",male rats; day 14,1.22*
same,"Proline, ratio versus control",male rats; day 14,0.88*
same,"Valine, ratio versus control",male rats; day 14,0.74*
same,"Phosphatidylcholine (C16:0,C20:5), ratio versus control",male rats; day 14 (Table 4a),1.11*
same,"Docosahexaenoic acid (C22:cis[4,7,10,13,16,19]6), ratio versus control",male rats; day 14 (Table 4b),0.66*
same,"Phosphatidylcholine (C18:0,C22:6), ratio versus control",male rats; day 14 (Table 4b),0.9*
same,"Threonine, ratio versus control",male rats; day 14 (Table 4b),0.74*
same,"Alanine, ratio versus control",male rats; day 28,0.88*
same,"Citrulline, ratio versus control",male rats; day 28,0.86*
same,"Isoleucine, ratio versus control",male rats; day 28,0.78*
same,"Leucine, ratio versus control",male rats; day 28,0.78*
same,"Lysine, ratio versus control",male rats; day 28,0.86*
same,"Ornithine, ratio versus control",male rats; day 28,0.78*
same,"Phenylalanine, ratio versus control",male rats; day 28,0.81*
same,"Phosphate (inorganic and organic phosphates), ratio versus control",male rats; day 28,0.69*
same,"Phosphatidylcholine (C16:0,C16:0), ratio versus control",male rats; day 28,1.07
same,"Proline, ratio versus control",male rats; day 28,0.93*
same,"Valine, ratio versus control",male rats; day 28,0.84*
same,"Phosphatidylcholine (C16:0,C20:5), ratio versus control",male rats; day 28 (Table 4a),1.06
same,"Docosahexaenoic acid (C22:cis[4,7,10,13,16,19]6), ratio versus control",male rats; day 28 (Table 4b),0.83*
same,"Phosphatidylcholine (C18:0,C22:6), ratio versus control",male rats; day 28 (Table 4b),0.84*
same,"Threonine, ratio versus control",male rats; day 28 (Table 4b),0.87*

# From US20150017667A1, “MEANS AND METHODS FOR ASSESSING LIVER DISORDERS” (BASF SE, priority 2012, published 2015)
